System: MDA-MB-231
Assay: Antiproliferative activity against human MDA-MB-231 cells after 72 hrs by Celltiter-glo luminescence assay
Type: functional, cell-based
Conditions: MDA-MB-231, 72 h

EC50 [µM] | SMILES
0.25 to 0.5 | CN(C)CCCOc1nc(-c2ccc(Cl)c(NC(=O)c3coc(N)n3)c2)cs1

System: not listed separately
Assay: Antiproliferative activity against mouse LM2 cells after 72 hrs by Celltiter-glo luminescence assay
Type: functional, cell-based
Conditions: not given

SMILES | EC50 [µM]
CN(C)CCCOc1ncc(-c2ccc(Cl)c(NC(=O)c3coc(N)n3)c2)s1 | < 0.1
CNC1CCC(n2cc(-c3ccc(Cl)c(NC(=O)c4coc(N)n4)c3)cn2)CC1 (mixture of isomers) | < 0.1
Cc1nn(C2CCNCC2)cc1-c1ccc(Cl)c(NC(=O)c2coc(N)n2)c1 | 0.1 to 0.25
CN1CC(n2cc(-c3ccc(Cl)c(NC(=O)c4coc(N)n4)c3)cn2)C1 | 0.1 to 0.25
Nc1nc(C(=O)Nc2cc(-c3ccc(CN[C@H]4CC[C@H](N)CC4)nc3)ccc2Cl)co1 | 0.25 to 0.5
Nc1nc(C(=O)Nc2cc(-c3cnc(OC4CCNCC4)s3)ccc2Cl)co1 | < 0.1
CN(C)CCCOc1nc(-c2ccc(Cl)c(NC(=O)c3coc(N)n3)c2)cs1 | 0.25 to 0.5
CNC1CCCN(Cc2csc(-c3ccc(Cl)c(NC(=O)c4coc(N)n4)c3)n2)C1 (configuration not stated) | < 0.1
CN1CCN(CCCn2cc(-c3ccc(Cl)c(NC(=O)c4coc(N)n4)c3)cn2)CC1 | 0.1 to 0.25
Nc1nc(C(=O)Nc2cc(-c3ccn(C4CCNCC4)n3)ccc2Cl)co1 | 0.25 to 0.5
CSc1ccc(-c2cnc(OCCCN(C)C)s2)cc1NC(=O)c1coc(N)n1 | 0.1 to 0.25
Nc1nc(C(=O)Nc2cc(-c3cnn(CCN4CCNCC4)c3)ccc2Cl)co1 | 0.25 to 0.5
Nc1nc(C(=O)Nc2cc(-c3cnn(C4CCN(CCO)CC4)c3)ccc2Cl)co1 | 0.1 to 0.25
CNC1CCN(Cc2ncc(-c3ccc(Cl)c(NC(=O)c4coc(N)n4)c3)s2)CC1 | < 0.1
N#Cc1nn(C2CCNCC2)cc1-c1ccc(Cl)c(NC(=O)c2coc(N)n2)c1 | 0.1 to 0.25
CN1CCC(NCc2ccc(-c3ccc(Cl)c(NC(=O)c4coc(N)n4)c3)cn2)CC1 | 0.1 to 0.25
CN1CCN(CCn2cc(-c3ccc(Cl)c(NC(=O)c4coc(N)n4)c3)cn2)CC1 | 0.25 to 0.5
CN(C)C1CCN(C(=O)Cn2cc(-c3ccc(Cl)c(NC(=O)c4coc(N)n4)c3)cn2)CC1 | 0.25 to 0.5
CSc1ccc(-c2nc(CN3CCNCC3)cs2)cc1NC(=O)c1coc(N)n1 | < 0.1
CNCCCn1cc(-c2ccc(Cl)c(NC(=O)c3coc(N)n3)c2)cn1 | < 0.1
Nc1nc(C(=O)Nc2cc(-c3ccc(CN4CCNCC4)cc3)ccc2Cl)co1 | 0.25 to 0.5

SMILES | EC50 [µM]
CN1CCC(n2cc(-c3ccc(Cl)c(NC(=O)c4coc(N)n4)c3)cn2)CC1 | 0.1 to 0.25
Nc1nc(C(=O)Nc2cc(-c3cnn(CCCNC4CC4)c3)ccc2Cl)co1 | 0.1 to 0.25
CN(C)CCOc1ccc(-c2ccc(Cl)c(NC(=O)c3coc(N)n3)c2)cc1 | 0.1 to 0.25
Nc1nc(C(=O)Nc2cc(-c3cnc(OC4CCNCC4)nc3)ccc2Cl)co1 | 0.25 to 0.5
CC(C)NCCCOc1ccc(-c2ccc(Cl)c(NC(=O)c3coc(N)n3)c2)cn1 | 0.1 to 0.25
Nc1nc(C(=O)Nc2cc(-c3ccc(OCC4CCCNC4)nc3)ccc2Cl)co1 (configuration not stated) | 0.25 to 0.5
Nc1nc(C(=O)Nc2cc(-c3ccc(CN4CCNCC4)nc3)ccc2Cl)co1 | 0.25 to 0.5
CNCCn1cc(-c2ccc(Cl)c(NC(=O)c3coc(N)n3)c2)cn1 | 0.1 to 0.25
Nc1nc(C(=O)Nc2cc(-c3cnn(C4CCNC4)c3)ccc2Cl)co1 (configuration not stated) | 0.1 to 0.25
CNCCCOc1ccc(-c2ccc(Cl)c(NC(=O)c3coc(N)n3)c2)cn1 | 0.1 to 0.25
CN(C)CCC(=O)N1CCC(n2cc(-c3ccc(Cl)c(NC(=O)c4coc(N)n4)c3)cn2)CC1 | 0.25 to 0.5
CCNCCn1cc(-c2ccc(Cl)c(NC(=O)c3coc(N)n3)c2)cn1 | 0.1 to 0.25
CN(C)CCCc1ncc(-c2ccc(Cl)c(NC(=O)c3coc(N)n3)c2)s1 | < 0.1
CC1CN(C(=O)Cn2cc(-c3ccc(Cl)c(NC(=O)c4coc(N)n4)c3)cn2)CCN1 (configuration not stated) | 0.25 to 0.5
CN1CCN(Cc2ccc(-c3ccc(Cl)c(NC(=O)c4coc(N)n4)c3)cn2)CC1 | 0.25 to 0.5
CNC1CCCN(Cc2ncc(-c3ccc(Cl)c(NC(=O)c4coc(N)n4)c3)s2)C1 (configuration not stated) | 0.1 to 0.25
Nc1nc(C(=O)Nc2cc(-c3ccc(N4CCNCC4)cc3)ccc2Cl)co1 | 0.25 to 0.5
CN1CCC(NC(=O)Cn2cc(-c3ccc(Cl)c(NC(=O)c4coc(N)n4)c3)cn2)CC1 | 0.25 to 0.5
CN1CCN(c2ncc(-c3ccc(Cl)c(NC(=O)c4coc(N)n4)c3)s2)CC1 | 0.1 to 0.25
Nc1nc(C(=O)Nc2cc(-c3ccc(OC4CCNCC4)nc3)ccc2Cl)co1 | 0.25 to 0.5
Nc1nc(C(=O)Nc2cc(-c3nc(CN4CCNCC4)cs3)ccc2Cl)co1 | < 0.1

SMILES | EC50 [µM]
CN(C)CCCC(=O)N1CCC(n2cc(-c3ccc(Cl)c(NC(=O)c4coc(N)n4)c3)cn2)CC1 | 0.25 to 0.5
CN(C)CCCn1cc(-c2ccc(Cl)c(NC(=O)c3coc(N)n3)c2)cn1 | 0.1 to 0.25
CN(C)CC(=O)N1CCC(n2cc(-c3ccc(Cl)c(NC(=O)c4coc(N)n4)c3)cn2)CC1 | 0.1 to 0.25
CN(C)C1CCN(Cc2csc(-c3ccc(Cl)c(NC(=O)c4coc(N)n4)c3)n2)CC1 | 0.1 to 0.25
Nc1nc(C(=O)Nc2cc(-c3cnn(CCCN4CCNCC4)c3)ccc2Cl)co1 | 0.1 to 0.25
Nc1nc(C(=O)Nc2cc(-c3cnc(CN4CCNCC4)s3)ccc2Cl)co1 | 0.1 to 0.25
CN(C)CCC(=O)N1CC(Cn2cc(-c3ccc(Cl)c(NC(=O)c4coc(N)n4)c3)cn2)C1 | 0.25 to 0.5
CN1CCN(c2ccc(-c3ccc(Cl)c(NC(=O)c4coc(N)n4)c3)cn2)CC1 | 0.1 to 0.25
Nc1nc(C(=O)Nc2cc(-c3cnn(C4CCNCC4)c3)ccc2Cl)co1 | 0.25 to 0.5
CN(C)CCCOc1ccc(-c2ccc(Cl)c(NC(=O)c3coc(N)n3)c2)cn1 | 0.1 to 0.25
CN(C)CCNC(=O)Cn1cc(-c2ccc(Cl)c(NC(=O)c3coc(N)n3)c2)cn1 | 0.25 to 0.5
CCN(CC)CCCOc1ncc(-c2ccc(Cl)c(NC(=O)c3coc(N)n3)c2)s1 | < 0.1
CSc1ccc(-c2ccc(OCCCN(C)C)nc2)cc1NC(=O)c1coc(N)n1 | 0.25 to 0.5
Nc1nc(C(=O)Nc2cc(-c3ccc(CN4CC5CNCC5C4)nc3)ccc2Cl)co1 (configuration not stated) | 0.25 to 0.5
CN(C)CCOc1ccc(-c2ccc(Cl)c(NC(=O)c3coc(N)n3)c2)cn1 | 0.25 to 0.5
CN(C)CCCOc1ccc(-c2ccc(Cl)c(NC(=O)c3coc(N)n3)c2)nc1 | 0.25 to 0.5
Nc1nc(C(=O)Nc2cc(-c3cnn(C4CCCNC4)c3)ccc2Cl)co1 (configuration not stated) | 0.1 to 0.25
CN(C)CCOc1ncc(-c2ccc(Cl)c(NC(=O)c3coc(N)n3)c2)cn1 | 0.25 to 0.5
Nc1nc(C(=O)Nc2cc(-c3ccc(OC4CCNC4)nc3)ccc2Cl)co1 (configuration not stated) | 0.25 to 0.5
CCNCCCn1cc(-c2ccc(Cl)c(NC(=O)c3coc(N)n3)c2)cn1 | < 0.1
CNCC1CCN(Cc2ncc(-c3ccc(Cl)c(NC(=O)c4coc(N)n4)c3)s2)CC1 | < 0.1

System: not listed separately
Assay: Ratio of EC50 for CRISPR PAICS knock out mouse LM2 cells to EC50 for mouse wild type LM2 cells
Type: functional
Conditions: not given

SMILES | Ratio EC50
CN(C)CCCOc1ncc(-c2ccc(Cl)c(NC(=O)c3coc(N)n3)c2)s1 | >30
CN1CCN(c2ccc(-c3ccc(Cl)c(NC(=O)c4coc(N)n4)c3)cn2)CC1 | >10
CCNCCCn1cc(-c2ccc(Cl)c(NC(=O)c3coc(N)n3)c2)cn1 | >80

Source: ChEMBL document CHEMBL4418316, “Oxazole derivatives for use in the treatment of cancer” (2018)
